Reference: patent US9517996B2, “Purification of polycarboxylic acids” (Verdezyne, Inc., priority 2014, dated 2016)

Assay: physchem
Conditions: thermodynamic from solid
Method: Each polycarboxylic acid was added to the water or acetic acid solution while mixing and kept at the appropriate temperature until the solution became supersaturated as visually determined at least 20 minutes after addition of the polycarboxylic acid.

solubility (20 °C, organic solvent or mixture): < 200 µg/mL
solubility (23 °C, water): < 30 µg/mL
solubility (70 °C, organic solvent or mixture): > 100000 µg/mL
solubility (70 °C, water): < 120 µg/mL
solubility (water): < 1000 µg/mL
Compound: O=C(O)CCCCCCCCCCC(=O)O [DDDA, dodecanedioic acid]
